The target of one test is T1, glucocorticoid receptor (Homo sapiens, UniProt P04150).
T1 construct: containing 50-200 ug of A549 cell extract and 1.86 nM [^3H]-dexamethasone; host or cells: A549 human lung epithelial cells (sonicated cell extract)
T1 sequence (P04150 1-777): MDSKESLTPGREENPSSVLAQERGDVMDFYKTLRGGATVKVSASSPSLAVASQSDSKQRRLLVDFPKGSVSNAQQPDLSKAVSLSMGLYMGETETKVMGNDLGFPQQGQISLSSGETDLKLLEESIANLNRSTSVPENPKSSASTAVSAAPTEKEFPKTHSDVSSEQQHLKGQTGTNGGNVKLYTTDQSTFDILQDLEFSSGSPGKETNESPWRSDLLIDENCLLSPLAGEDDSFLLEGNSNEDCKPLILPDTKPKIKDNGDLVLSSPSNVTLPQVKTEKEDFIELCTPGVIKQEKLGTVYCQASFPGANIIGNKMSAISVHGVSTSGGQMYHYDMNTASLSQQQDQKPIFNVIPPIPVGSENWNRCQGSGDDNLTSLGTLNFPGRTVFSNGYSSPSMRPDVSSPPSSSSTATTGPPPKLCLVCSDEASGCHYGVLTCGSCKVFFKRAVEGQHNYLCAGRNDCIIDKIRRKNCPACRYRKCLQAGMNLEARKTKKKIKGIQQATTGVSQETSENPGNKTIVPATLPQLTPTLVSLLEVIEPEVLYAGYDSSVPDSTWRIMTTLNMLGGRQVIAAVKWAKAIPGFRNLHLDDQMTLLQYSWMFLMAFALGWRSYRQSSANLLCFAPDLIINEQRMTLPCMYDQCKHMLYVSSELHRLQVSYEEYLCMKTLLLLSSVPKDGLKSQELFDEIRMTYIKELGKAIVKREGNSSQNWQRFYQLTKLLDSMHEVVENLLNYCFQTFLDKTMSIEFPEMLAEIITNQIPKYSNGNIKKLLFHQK
Put plainly: Glucocorticoid Receptor Binding Assay ([3H]-dexamethasone, A549 cell extract). As to conditions: [3H]-dexamethasone binding, read-out: GR Ki. The essentials:
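A549 cell extract (50–200 ug) incubated with 1.86 nM [3H]-dexamethasone and test compound for 16 h at 4 °C in Tris-HCl pH 7.2 buffer with glycerol and molybdate. Unbound radioligand removed by dextran-coated charcoal, then supernatant bound counts measured by scintillation.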

For another test, the target named is T2, human MR (Homo sapiens, UniProt P08235).
T2 construct: The full length human MR gene is cloned from a human kidney or human brain cDNA library; His tag from the pAcHLT vector (own knowledge); made in house; host or cells: Sf9 insect cells (baculovirus, pAcHLT transfer vector)
T2 sequence (P08235 1-984): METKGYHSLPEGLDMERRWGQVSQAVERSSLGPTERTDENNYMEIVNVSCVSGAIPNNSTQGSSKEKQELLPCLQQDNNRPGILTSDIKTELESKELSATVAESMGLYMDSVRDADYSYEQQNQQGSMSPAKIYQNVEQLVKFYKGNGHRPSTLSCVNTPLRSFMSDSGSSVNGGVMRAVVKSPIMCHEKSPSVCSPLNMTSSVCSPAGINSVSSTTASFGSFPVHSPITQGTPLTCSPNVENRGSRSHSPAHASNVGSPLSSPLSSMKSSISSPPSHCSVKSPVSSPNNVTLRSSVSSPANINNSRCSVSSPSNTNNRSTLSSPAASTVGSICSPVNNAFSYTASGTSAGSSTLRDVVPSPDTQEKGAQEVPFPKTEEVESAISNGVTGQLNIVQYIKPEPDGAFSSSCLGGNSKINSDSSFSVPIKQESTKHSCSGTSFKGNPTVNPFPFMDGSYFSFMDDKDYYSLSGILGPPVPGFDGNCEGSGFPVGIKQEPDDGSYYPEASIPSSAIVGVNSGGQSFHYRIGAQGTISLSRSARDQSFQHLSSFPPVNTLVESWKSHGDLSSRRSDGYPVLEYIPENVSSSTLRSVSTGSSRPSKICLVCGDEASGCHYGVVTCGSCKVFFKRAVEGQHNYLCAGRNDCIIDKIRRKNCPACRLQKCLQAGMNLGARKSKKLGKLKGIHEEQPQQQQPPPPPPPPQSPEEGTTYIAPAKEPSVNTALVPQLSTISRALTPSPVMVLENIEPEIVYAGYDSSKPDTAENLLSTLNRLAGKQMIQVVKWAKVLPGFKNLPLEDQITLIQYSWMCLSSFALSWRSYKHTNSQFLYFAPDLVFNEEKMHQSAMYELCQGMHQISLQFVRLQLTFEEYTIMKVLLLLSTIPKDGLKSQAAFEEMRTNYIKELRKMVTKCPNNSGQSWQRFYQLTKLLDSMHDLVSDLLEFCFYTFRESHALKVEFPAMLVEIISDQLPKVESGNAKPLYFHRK
Description: Mineralocorticoid Receptor Binding Assay ([3H]-aldosterone). As to conditions: [3H]-aldosterone binding, human MR expressed in Sf9 cells; read-out: MR Ki. The essentials:
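Lysate supernatant of Sf9 cells expressing full-length human MR (20-25 μg protein) was incubated with 0.5 nM [3H]-aldosterone and test compound in molybdate/Tris/phosphate/glycerol buffer, pH 7.5, ~16 h at 4 °C. Bound ligand was filtered and counted by scintillation; IC50 is the concentration halving [3H]-aldosterone binding.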

In the case of `CS(=O)(=O)Nc1cccc(C=C2c3ccccc3CCc3cc(F)cc(F)c32)c1` [Example 344], the Ki on glucocorticoid receptor and at human MR was less than 0.5 µM in each case.
In the case of `CS(=O)(=O)NCc1ccc(/C=C2/c3ccccc3CCc3cc(Cl)ccc32)cc1` [Example 345], the Ki (commonly the dissociation constant of the complex between target and ligand, obtained from inhibition or displacement) on glucocorticoid receptor is less than 10 µM; on human MR, less than 0.5 µM.
For `CS(=O)(=O)NCc1ccc(/C=C2\c3ccccc3CCc3cc(Cl)ccc32)cc1` [Example 346], in that order: less than 10 µM and less than 0.5 µM.
Turning to `COc1ccc2c(c1)/C(=C/c1cccc(NS(C)(=O)=O)c1)c1ccccc1CC2` [Example 347], the inhibitory constant (Ki) at glucocorticoid receptor and at human MR was less than 0.5 µM in each case.
On to `COc1ccc2c(c1)/C(=C\c1cccc(NS(C)(=O)=O)c1)c1ccccc1CC2` [Example 348], for which the inhibitory constant (Ki) on glucocorticoid receptor and on human MR was less than 0.5 µM in each case.
On to `COc1ccc2c(c1)[C@@H](Cc1cccc(NS(C)(=O)=O)c1)c1ccccc1CC2` [Example 349], for which the Ki at glucocorticoid receptor and at human MR was less than 0.5 µM throughout.
As for `CS(=O)(=O)Nc1cccc(/C=C2/c3ccccc3CCc3ccc(O)cc32)c1` [Example 350], the inhibitory constant (Ki) at glucocorticoid receptor and on human MR was less than 0.5 µM throughout.
As for `COc1ccc2c(c1)CCc1ccccc1[C@@H]2Cc1cccc(NS(C)(=O)=O)c1` [Example 351], the inhibition constant Ki at glucocorticoid receptor and at human MR was less than 0.5 µM throughout.
As for `CS(=O)(=O)Nc1cccc(/C=C2\c3ccccc3CCc3ccc(O)cc32)c1` [Example 352], the inhibition constant (Ki) at glucocorticoid receptor and at human MR was less than 0.5 µM throughout.
In the case of `COc1cccc2c1C(=Cc1cccc(NS(C)(=O)=O)c1)c1ccccc1CC2` [Example 353], the Ki on glucocorticoid receptor and on human MR was less than 0.5 µM throughout.
As for `CS(=O)(=O)Nc1cccc(/C=C2\c3ccccc3CCc3cc(F)ccc32)c1` [Example 355], the Ki at glucocorticoid receptor and on human MR was less than 0.5 µM each time.
For the molecule `CS(=O)(=O)Nc1cccc(C=C2c3ccc(F)cc3CCc3cc(F)ccc32)c1` [Example 360], the inhibition constant Ki is less than 1 µM on glucocorticoid receptor and less than 0.5 µM at human MR.
Turning to `N#Cc1cccc2c1CCc1ccccc1/C2=C/c1cccc(O)c1` [Example 363], the Ki at glucocorticoid receptor and on human MR was less than 0.5 µM in each case.
For `N#Cc1cccc2c1CCc1ccccc1/C2=C\c1cccc(O)c1` [Example 364], the Ki on glucocorticoid receptor and at human MR was less than 0.5 µM in each case.
On to `CS(=O)(=O)Nc1cccc(/C=C2\c3ccccc3CCc3cccc(Cl)c32)c1` [Example 365], for which the Ki at glucocorticoid receptor and on human MR was less than 0.5 µM each time.
With `CS(=O)(=O)Nc1cccc(/C=C2/c3ccccc3CCc3cccc(Cl)c32)c1` [Example 366], the inhibition constant (Ki) on glucocorticoid receptor and on human MR was less than 0.5 µM each time.
As for `Oc1cccc(/C=C2/c3ccccc3CCc3cccc(Cl)c32)c1` [Example 367], the values for the inhibitory constant (Ki) at glucocorticoid receptor and on human MR were less than 10 µM and less than 0.5 µM, respectively.
For `COc1cccc(/C=C2\c3ccccc3CCc3c(O)cccc32)c1` [Example 368] the same measures were less than 10 µM and less than 0.5 µM.
For `COc1cccc(/C=C2/c3ccccc3CCc3c(O)cccc32)c1` [Example 369], in that order: less than 10 µM and less than 0.5 µM.
For the molecule `Oc1cccc(/C=C2\c3ccccc3CCc3cccc(Cl)c32)c1` [Example 370], the results for the inhibitory constant (Ki) on glucocorticoid receptor and at human MR were less than 1 µM and less than 0.5 µM, respectively.
`Oc1cccc(/C=C2/c3ccccc3CCc3c(Br)cccc32)c1` [Example 371]: the Ki on glucocorticoid receptor and on human MR was less than 0.5 µM in each case.
As to `Oc1cccc(/C=C2\c3ccccc3CCc3c(Br)cccc32)c1` [Example 372], the figures for the Ki on glucocorticoid receptor and on human MR were less than 1 µM and less than 0.5 µM, respectively.
For `Oc1cccc(C=C2c3ccccc3CCc3c2cccc3C(Br)Br)c1` [Example 373] the same measures were less than 10 µM and less than 0.5 µM.
For `CS(=O)(=O)Nc1cccc(/C=C2/c3ccccc3CCc3cc(C(F)F)ccc32)c1` [Example 374] the same measures were less than 0.5 µM and less than 0.5 µM.
For `CS(=O)(=O)Nc1cccc(/C=C2\c3ccccc3CCc3cc(C(F)F)ccc32)c1` [Example 375], in that order: less than 0.5 µM and less than 0.5 µM.
As for `Oc1cccc(/C=C2\c3ccccc3CCc3c(O)cccc32)c1` [Example 376], the Ki at glucocorticoid receptor and at human MR was less than 0.5 µM throughout.
With `Oc1cccc(/C=C2/c3ccccc3CCc3c(O)cccc32)c1` [Example 377], the Ki was less than 10 µM on glucocorticoid receptor and less than 0.5 µM at human MR.
For `O=Cc1cccc2c1CCc1ccccc1/C2=C\c1cccc(O)c1` [Example 378], in that order: less than 1 µM and less than 0.5 µM.
For `O=Cc1cccc2c1CCc1ccccc1/C2=C/c1cccc(O)c1` [Example 379] the same measures were less than 10 µM and less than 0.5 µM.
As for `Oc1cccc(/C=C2/c3ccccc3CCc3c2cccc3C(F)F)c1` [Example 380], the Ki at glucocorticoid receptor was less than 1 µM; on human MR it was less than 0.5 µM.
On to `CS(=O)(=O)Nc1cccc(/C=C2/c3ccccc3CCc3c2cccc3C(F)F)c1` [Example 381], for which the Ki on glucocorticoid receptor and at human MR was less than 0.5 µM in each case.
With `CS(=O)(=O)Nc1cccc(/C=C2\c3ccccc3CCc3c2cccc3C(F)F)c1` [Example 382], the Ki on glucocorticoid receptor and at human MR was less than 0.5 µM throughout.
In the case of `CS(=O)(=O)Nc1cccc(C[C@H]2c3ccccc3CCc3cc(F)ccc32)c1` [Example 383], the Ki on glucocorticoid receptor and on human MR was less than 0.5 µM throughout.
`Nc1cccc(C=C2c3ccc(F)cc3CCc3cc(F)ccc32)c1` [Example 384]: the inhibition constant Ki at glucocorticoid receptor and on human MR was less than 0.5 µM in each case.
As for `N#CNc1cccc(C=C2c3ccc(F)cc3CCc3cc(F)ccc32)c1` [Example 385], the Ki at glucocorticoid receptor was less than 1 µM; at human MR it was less than 0.5 µM.
For `COC(=O)c1ccc2c(c1)CCc1ccccc1/C2=C\c1cccc(NS(C)(=O)=O)c1` [Example 386] the same measures were less than 0.5 µM and less than 0.5 µM.
For `COC(=O)c1ccc2c(c1)CCc1ccccc1/C2=C/c1cccc(NS(C)(=O)=O)c1` [Example 387], in that order: less than 0.5 µM and less than 0.5 µM.
For `CSc1ccc2c(c1)CCc1ccccc1/C2=C\c1cccc(NS(C)(=O)=O)c1` [Example 388] the same measures were less than 0.5 µM and less than 0.5 µM.
On to `CSc1ccc2c(c1)CCc1ccccc1/C2=C/c1cccc(NS(C)(=O)=O)c1` [Example 389], for which the Ki on glucocorticoid receptor and on human MR was less than 0.5 µM throughout.
In the case of `CS(=O)(=O)Nc1cccc(/C=C2/c3ccccc3CCc3cc(C(F)(F)F)ccc32)c1` [Example 390], the Ki at glucocorticoid receptor and at human MR was less than 0.5 µM in each case.
For the molecule `CS(=O)(=O)Nc1cccc(/C=C2\c3ccccc3CCc3cc(C(F)(F)F)ccc32)c1` [Example 391], the inhibition constant Ki on glucocorticoid receptor and at human MR was less than 0.5 µM in each case.
